{
  "source": "paper PMC12970513",
  "about": "“Unsaturated Phosphorus Electrophiles to Probe Protein Tyrosine Phosphatases” (Angewandte Chemie (International Ed. in English), 2026)",
  "experiment": "Thiol reactivity with glutathione (UPLC-UV/MS)",
  "conditions": "1 mM compound, 10 mM GSH (10 equivalents), 25°C / room temperature, 16 h, caffeine (peptides) or TPPO (SM) internal standard, n = 3; for consumption of starting material to glutathione adduct, pH 7.4: Tris pH 7.4, 10% DMSO; for consumption of starting material to glutathione adduct, pH 8.5: Tris pH 8.5, 10% DMSO",
  "method": "After verifying the stability of the phosphonamidic and phosphonic acid warheads at physiological and slightly basic pH, we aimed to investigate the reactivity towards endogenous thiol concentrations. For this, 1 mM bio‐PN or bio‐PO and 1 mM caffeine as an internal standard, as well as 1 mM SM‐PN or SM‐PO and 1 mM TPPO (internal standard), were incubated at room temperature with 10 equivalents (10 mM) glutathione (GSH), and the outcome was followed by UPLC‐MS (Figure S4).\nFIGURE 3 Time‐dependent decay of bio‐PN, bio‐PO, SM‐PN, and SM‐PO (1 mM) in the presence of 10 mM GSH with 1 mM caffeine or TPPO as internal standard. The assay was performed at 25°C in Tris buffer (10% DMSO) at (a) pH 7.4, (b) pH 8.5. Results are presented as mean ± standard deviation (n = 3). (c) Labeling conditions to assess by ESI‐MS the ability of bio‐PN, bio‐PO, SM‐PN, and SM‐PO to covalently bind recombinant PTP1B. Stacked deconvoluted MS spectra of the initial time point (t0) of PTP1B labeling with (d) bio‐PO after 4 h: full labeling, (e) bio‐PN after 20 h: ∼80% labeling, (f) SM‐PO after 20 h: no labeling, (g) SM‐PN after 20 h: no labeling.\nFigure S4: Monitoring of thiol reactivity with GSH as a model thiol of peptide and small molecule phosphonamidic and phosphonic acids by UPLC-UV/MS. a) Reaction conditions for bio-PN and bio-PO. b) Exemplary UV chromatograms of bio-PO at pH 8.5 and at 0 and 16 hours, highlighting the internal standard (caffeine) and the compound. c) Reaction conditions for SM-PN and SM-PO. d) Exemplary UV chrommatogramms of SM-PN at pH 8.5 and at 0 and 16 hours, highlighting the internal standard (TPPO) and the compound. All experiments were prepared in triplicates. [picture]\nFor testing the thiol reactivity of bio-PN and bio-PO at pH 7.4, 10 µL of a 10 mM caffeine (internal standard) stock solution in Tris buffer pH 7.4 (final concentration 1 mM) and 10 µL of a 10 mM peptide stock solution in DMSO were added in 75 µL of 50 mM Tris buffer, pH 7.4. Immediately prior to the measurement, 5 µL of a 200 mM stock solution of reduced glutathione (final concentration 10 mM, 10.0 eq.) in Tris buffer (pH adjusted to 7.4) were added. The solutions were transferred to a sample vial and measured by UPLC-UV/MS at room temperature and at time points t0, t0.5h, t1h, t2h, t4h, t8h, t16h 1 µL of the reaction mixture was injected. For the analysis, the peak area of the internal standard was correlated with that of the starting material. The same protocol was followed at pH 8.5 using Tris buffer adjusted accordingly.\nSimilar conditions were applied in the case of SM-PN and SM-PO. […]",
  "data": [
    {"smiles": "C#CP(=O)(O)Nc1ccc(CCNC(=O)CCCC[C@@H]2SC[C@@H]3NC(=O)N[C@@H]32)cc1", "note": "[SM-PN, N-(4-(2-biotinamidoethyl)phenyl)-P-ethynylphosphonamidic acid]", "values": [
      {"measurement": "consumption of starting material to glutathione adduct, pH 7.4", "result": "no consumption of the starting material to a glutathione adduct was observed"},
      {"measurement": "consumption of starting material to glutathione adduct, pH 8.5", "result": "no consumption of the starting material to a glutathione adduct was observed"}
    ]},
    {"smiles": "C#CP(=O)(O)Oc1ccc(CCNC(=O)CCCC[C@@H]2SC[C@@H]3NC(=O)N[C@@H]32)cc1", "note": "[SM-PO, 4-(2-biotinamidoethyl)phenyl ethynylphosphonic acid monoester]", "values": [
      {"measurement": "consumption of starting material to glutathione adduct, pH 7.4", "result": "no consumption of the starting material to a glutathione adduct was observed"},
      {"measurement": "consumption of starting material to glutathione adduct, pH 8.5", "result": "no consumption of the starting material to a glutathione adduct was observed"}
    ]}
  ]
}
